Source: ChEMBL document CHEMBL5338785, “Development of Aromatic-Linked Diamino Acid Antimicrobial Peptide Mimics with Low Hemolytic Toxicity and Excellent Activity against Methicillin-Resistant Staphylococcus aureus (MRSA)” (J Med Chem, 2023)
Calls of active or inactive are those of the source. No cut-off for these calls is given here.

How the values were obtained:
Staphylococcus aureus [1] = test: Antibacterial activity against methicillin-resistant Staphylococcus aureus assessed as bacterial growth inhibition; format: functional
Enterococcus faecalis [2] = test: Antibacterial activity against Enterococcus faecalis assessed as bacterial growth inhibition; format: functional
Escherichia coli [3] = test: Antibacterial activity against Escherichia coli assessed as bacterial growth inhibition; format: functional
[4] = system: Stenotrophomonas maltophilia; test: Antibacterial activity against Stenotrophomonas maltophilia assessed as bacterial growth inhibition; format: functional
[5] = Hemolytic activity in mammalian RBC assessed as hemolysis; format: toxicity, cell-based, Erythrocyte; details: mammalia, mammalian red blood cells
[6] = Selectivity index, ratio of HC50 for hemolytic activity in mammalian RBC to MIC for antibacterial activity against methicillin-resistant Staphylococcus aureus assessed as bacterial growth inhibition; format: toxicity; details: mammalian red blood cells
[7] = Hemolytic activity in mammalian RBC assessed as hemolysis at 320 ug/ml incubated for 1 hr by microplate reader analysis; format: toxicity, cell-based, Erythrocyte; details: mammalia, mammalian red blood cells, at 320 µg/mL, read-out: Activity
Staphylococcus aureus [8] = test: Antibacterial activity against methicillin-resistant Staphylococcus aureus assessed as bacterial growth inhibition incubated for 18 hrs by CLSI protocol based Mueller-Hinton broth assay; format: functional; details: Staphylococcus aureus, read-out: MIC
Enterococcus faecalis [9] = test: Antibacterial activity against Enterococcus faecalis assessed as bacterial growth inhibition incubated for 18 hrs by CLSI protocol based Mueller-Hinton broth assay; format: functional; details: Enterococcus faecalis, 18 h, read-out: MIC
Escherichia coli [10] = test: Antibacterial activity against Escherichia coli assessed as bacterial growth inhibition incubated for 18 hrs by CLSI protocol based Mueller-Hinton broth assay; format: functional; details: Escherichia coli, read-out: MIC
[11] = system: Stenotrophomonas maltophilia; test: Antibacterial activity against Stenotrophomonas maltophilia assessed as bacterial growth inhibition incubated for 18 hrs by CLSI protocol based Mueller-Hinton broth assay; format: functional; details: Stenotrophomonas maltophilia, read-out: MIC
[12] = Hemolytic activity in sheep RBC assessed as hemolysis incubated for 1 hr by microplate reader method; format: toxicity, cell-based, Ovis aries, Erythrocyte; details: sheep red blood cells
[13] = Selectivity index, ratio of HC50 for hemolytic activity in sheep RBC to MIC for antibacterial activity against methicillin-resistant Staphylococcus aureus assessed as bacterial growth inhibition; format: toxicity; details: sheep red blood cells
[14] = Selectivity index, ratio of HC50 for hemolytic activity in sheep RBC to IC50 for antibacterial activity against Enterococcus faecalis assessed as bacterial growth inhibition; format: toxicity; details: sheep red blood cells
[15] = Selectivity index, ratio of HC50 for hemolytic activity in sheep RBC to IC50 for antibacterial activity against Escherichia coli assessed as bacterial growth inhibition; format: toxicity; details: sheep red blood cells
[16] = Selectivity index, ratio of HC50 for hemolytic activity in sheep RBC to IC50 for antibacterial activity against Salmonella enterica assessed as bacterial growth inhibition; details: sheep red blood cells
Staphylococcus aureus [17] = test: Antibacterial activity against methicillin-resistant Staphylococcus aureus clinical isolates assessed as bacterial growth inhibition incubated for 18 hrs by CLSI protocol based Mueller-Hinton broth assay; format: functional
Enterococcus faecium = test: Antibacterial activity against Enterococcus faecium clinical isolates assessed as bacterial growth inhibition incubated for 18 hrs by CLSI protocol based Mueller-Hinton broth assay; format: functional
Escherichia coli [18] = test: Antibacterial activity against carbapenems-resistant Escherichia coli expressing blaNDM-5 clinical isolates assessed as bacterial growth inhibition incubated for 18 hrs by CLSI protocol based Mueller-Hinton broth assay; format: functional
Escherichia coli [19] = test: Antibacterial activity against carbapenems-resistant Escherichia coli expressing blaNDM-3 clinical isolates assessed as bacterial growth inhibition incubated for 18 hrs by CLSI protocol based Mueller-Hinton broth assay; format: functional
Escherichia coli [20] = test: Antibacterial activity against carbapenems-resistant Escherichia coli expressing blaNDM-9 clinical isolates assessed as bacterial growth inhibition incubated for 18 hrs by CLSI protocol based Mueller-Hinton broth assay; format: functional
Citrobacter freundii = test: Antibacterial activity against carbapenems-resistant Citrobacter freundii expressing blaNDM-1 clinical isolates assessed as bacterial growth inhibition incubated for 18 hrs by CLSI protocol based Mueller-Hinton broth assay; format: functional
Pseudomonas aeruginosa = test: Antibacterial activity against carbapenems-resistant Pseudomonas aeruginosa expressing blaVIM-1 clinical isolates assessed as bacterial growth inhibition incubated for 18 hrs by CLSI protocol based Mueller-Hinton broth assay; format: functional
Staphylococcus aureus [21] = test: Bactericidal activity against methicillin-resistant Staphylococcus aureus assessed as decrease in viable count measured up to 4 hrs by time-killing kinetics assay; format: functional, organism-based; details: dose 2-4 µg/ml
Staphylococcus aureus [22] = test: Bactericidal activity against methicillin-resistant Staphylococcus aureus assessed as decrease in viable count at 2 to 4 ug/ml by time-killing kinetics assay; format: functional, organism-based; details: dose 2-4 µg/ml, time <= 4.0 hrs, TDE = time-dependent effect
Staphylococcus aureus [23] = test: Antibacterial activity against methicillin-resistant Staphylococcus aureus assessed as resistance development at 0.5 to 1 ug/ml measured after 20 days by resistance development assay; format: functional, organism-based; details: dose 0.5-1 µg/ml, time 20.0 day
Staphylococcus aureus [24] = test: Induction of cytoplasmic membrane depolarization in methicillin-resistant Staphylococcus aureus assessed as enhancement of fluorescence intensity measured at 1 min interval for 16 mins by DiSC3(5) dye based fluorescence method; format: functional, organism-based; details: dose 0.5-16 µg/ml
Staphylococcus aureus [25] = test: Induction of cytoplasmic membrane depolarization in methicillin-resistant Staphylococcus aureus assessed as fold increase in fluorescence intensity at 16 ug/ml measured at 1 min interval for 16 mins by DiSC3(5) dye based fluorescence method; format: functional; details: dose 16 µg/ml
Staphylococcus aureus [26] = test: Antibacterial activity against methicillin-resistant Staphylococcus aureus assessed as bacterial growth inhibition in presence of phosphatidylglycerol incubated for 18 hrs by checkerboard microdilution assay; format: functional, organism-based
Staphylococcus aureus [27] = test: Antibacterial activity against methicillin-resistant Staphylococcus aureus assessed as bacterial growth inhibition in presence of phosphoethanolamine incubated for 18 hrs by checkerboard microdilution assay; format: functional, organism-based
Staphylococcus aureus [28] = test: Antibacterial activity against methicillin-resistant Staphylococcus aureus assessed as bacterial growth inhibition in presence of phosphatidylcholine incubated for 18 hrs by checkerboard microdilution assay; format: functional, organism-based
Staphylococcus aureus [29] = test: Induction of intracellular ROS accumulation in methicillin-resistant Staphylococcus aureus assessed as increase in fluorescence intensity incubated for 30 mins by DCFH-DA dye based fluorescence assay; format: functional, organism-based; details: dose 0.125-8 µg/ml
Staphylococcus aureus [30] = test: Induction of intracellular ROS accumulation in methicillin-resistant Staphylococcus aureus assessed as fold increase in fluorescence intensity at 0.5 ug/ml incubated for 30 mins by DCFH-DA dye based fluorescence assay; format: functional; details: dose 0.5 µg/ml
Staphylococcus aureus [31] = test: Antibacterial activity against methicillin-resistant Staphylococcus aureus assessed as fold decrease in MIC in presence of NAC incubated for 18 hrs by CLSI protocol based Mueller-Hinton broth assay; format: functional
Staphylococcus aureus [32] = test: Induction of morphological changes in methicillin-resistant Staphylococcus aureus assessed as appearance of wrinkled cell surface at 8 ug/ml incubated for 4 hrs by SEM analysis; format: functional, organism-based; details: dose 8.0 µg/ml
Staphylococcus aureus [33] = test: Induction of morphological changes in methicillin-resistant Staphylococcus aureus assessed as appearance of shrunken cell surface at 8 ug/ml incubated for 4 hrs by SEM analysis; format: functional, organism-based; details: dose 8.0 µg/ml
[34] = Cytotoxicity against HUVEC cells assessed as reduction in cell viability incubated for 72 hrs by CCK8 assay; format: toxicity, cell-based; details: human
[35] = Toxicity in HUVEC cells assessed as morphological changes at 16 ug/ml incubated for 24 hrs by optical microscopy imaging analysis; format: cell-based; details: human, dose 16 µg/ml
[36] = Toxicity in HUVEC cells assessed as live cells by measuring increase in green fluorescence at 16 ug/ml incubated for 24 hrs by calcein AM and propidium iodide staining based fuorescence microscopic analysis; format: cell-based; details: human, dose 16 µg/ml
[37] = Toxicity in SPF Kunming mouse assessed as lethal dose administered for 3 days; details: in vivo, 72 h, time 3 day
[38] = Metabolic stability in SPF Kunming mouse assessed as half life at 5 mg/kg/day, iv; format: ADME, organism-based; details: in vivo
Staphylococcus aureus [39] = test: In vivo antibacterial activity against methicillin-resistant Staphylococcus aureus infected in SPF Kunming mouse assessed as reduction in amount of bacteria measure per abscess at 5 mg/kg ,ip administered every 12 hrs for 3 consecutive days; format: functional; details: time 3 day
Staphylococcus aureus [40] = test: In vivo antibacterial activity against methicillin-resistant Staphylococcus aureus infected in SPF Kunming mouse assessed as reduction in amount of bacteria measured per abscess at 10 mg/kg ,ip administered every 12 hrs for 3 consecutive days; format: functional; details: time 3 day
Staphylococcus aureus [41] = test: In vivo antibacterial activity against methicillin-resistant Staphylococcus aureus infected in SPF Kunming mouse assessed as reduction in neutrophils in skin tissue at 10 mg/kg ,ip administered every 12 hrs for 3 consecutive days; format: functional, organism-based; details: time 3.0 day
Staphylococcus aureus [42] = test: Bactericidal activity against methicillin-resistant Staphylococcus aureus assessed as reduction in turbidity at 2 to 4 ug/ml measured after 6 hrs; format: functional, organism-based; details: dose 2-4 µg/ml
Staphylococcus aureus [43] = test: Antibacterial activity against methicillin-resistant Staphylococcus aureus assessed as bacterial growth inhibition incubated for 24 hrs by Luria-Bertani broth based method; format: functional
[44] = Hemolytic activity in human RBC assessed as hemolysis incubated for 1 hr; format: toxicity, cell-based, Erythrocyte; details: human red blood cells
[45] = Selectivity index, ratio of HC50 for hemolytic activity in human RBC to MIC for antibacterial activity against methicillin-resistant Staphylococcus aureus assessed as bacterial growth inhibition; format: toxicity; details: human red blood cells
[46] = Hemolytic activity in human erythrocytes assessed as hemolysis; format: toxicity, cell-based, Erythrocyte
[47] = Selectivity index, ratio of HC50 for hemolytic activity in human erythrocytes to MIC for antibacterial activity against methicillin-resistant Staphylococcus aureus assessed as bacterial growth inhibition; format: toxicity, cell-based

CCCCCCN(CCCCCCCCCCCCN(CCCCCC)C(=O)[C@@H](N)CCCCN)C(=O)[C@@H](N)CCCCN.Cl.Cl.Cl.Cl
MIC (Staphylococcus aureus [1]): 2 µg/mL | MIC (Enterococcus faecalis [2]): 1 µg/mL | MIC (Escherichia coli [3]): 1 µg/mL | MIC [4]: 1 µg/mL

CCCCCCCC[N+](C)(C)CCCCOc1ccc(OCCCC[N+](C)(C)CCCCCCCC)cc1.[Br-].[Br-]
MIC (Staphylococcus aureus [1]): 0.25 µg/mL | HC50 [5]: 1210 µg/mL | selectivity ratio [6]: 4840

CCCCCCN(CCCOc1ccccc1-c1ccccc1OCCCN(CCCCCC)C(=O)[C@@H](N)CCCCN)C(=O)[C@@H](N)CCCCN.Cl.Cl.Cl.Cl
hemolysis at 1 h, 320 ug/ml [7]: < 1% | MIC (Staphylococcus aureus [8]): 0.5 µg/mL | MIC (Enterococcus faecalis [9]): 0.5 µg/mL | MIC (Escherichia coli [10]): 2 µg/mL | MIC [11]: 2 µg/mL | HC50 at 1 h [12]: > 1000 µg/mL | selectivity ratio [13]: > 2000 | selectivity ratio [14]: > 2000 | selectivity ratio [15]: > 500 | selectivity ratio [16]: > 500 | MIC50 (Staphylococcus aureus [17]): 1 µg/mL | MIC90 (Staphylococcus aureus [17]): 2 µg/mL | MIC50 (Enterococcus faecium): 1 µg/mL | MIC90 (Enterococcus faecium): 2 µg/mL | MIC (Escherichia coli [18]): 2 µg/mL | MIC (Escherichia coli [19]): 2 µg/mL | MIC (Escherichia coli [20]): 2 µg/mL | MIC (Citrobacter freundii): 2 µg/mL | MIC (Pseudomonas aeruginosa): 2 µg/mL | Activity (Staphylococcus aureus [21]): Dose-Dependent Effect | Activity (Staphylococcus aureus [22]): Tde | Activity (Staphylococcus aureus [23]): Active | Activity (Staphylococcus aureus [24]): Active | fold change (FC) (Staphylococcus aureus [25]): 10 | inhibition (Staphylococcus aureus [26]): Active | inhibition (Staphylococcus aureus [27]): inactive | inhibition (Staphylococcus aureus [28]): inactive | Activity (Staphylococcus aureus [29]): Dose-Dependent Effect | fold change (FC) (Staphylococcus aureus [30]): 3.4 | fold change (FC) (Staphylococcus aureus [31]): 16 | Activity (Staphylococcus aureus [32]): Active | Activity (Staphylococcus aureus [33]): Active | CC50 at 72 h [34]: 24.2 µg/mL | Activity [35]: Non-Toxic | Activity [36]: Non-Toxic | LD50 [37]: > 200 mg/kg/day | half-life [38]: 4.21 h | Activity (Staphylococcus aureus [39]): 758577.6 CFU | Activity (Staphylococcus aureus [40]): 46773.51 CFU | Activity (Staphylococcus aureus [41]): Active | Activity (Staphylococcus aureus [42]): Active

CCCCCCCC[N+](C)(C)CC(=O)NCCCCCCNC(=O)C[N+](C)(C)CCCCCCCC.[Br-].[Br-]
MIC (Staphylococcus aureus [43]): 1.9 µg/mL | HC50 at 1 h [44]: 780 µg/mL | selectivity ratio [45]: 410

CCCCCCN(Cc1ccc(-c2ccc(CN(CCCCCC)C(=O)[C@@H](N)CCCCN)cc2)cc1)C(=O)[C@@H](N)CCCCN.O=C(O)C(F)(F)F.O=C(O)C(F)(F)F.O=C(O)C(F)(F)F.O=C(O)C(F)(F)F
MIC (Staphylococcus aureus [8]): 2 µg/mL | MIC (Enterococcus faecalis [9]): 2 µg/mL | MIC (Escherichia coli [10]; 18 h): 4 µg/mL | MIC [11]: 4 µg/mL | HC50 at 1 h [12]: 276 µg/mL | selectivity ratio [13]: 138 | CC50 at 72 h [34]: 14.2 µg/mL | MIC (Staphylococcus aureus [1]): 3.1 µg/mL | HC50 [46]: 230 µg/mL | selectivity ratio [47]: 74.2
